From US10106539B2, “Spiro-indolines for the treatment and prophylaxis of respiratory syncytial virus infection (RSV)” (REVIRAL LIMITED, priority 2014, dated 2018)

Columns and labels:
[1] = Liver microsomal stability, rat; type: in vitro ADME; details: male, Sprague Dawley, read-out: Liver Microsomal Stability T1/2, rat
Protocol: (§1) Microsomal Incubation: Experimental Procedure
(§2) Pooled human liver microsomes (pooled male and female), pooled rat liver microsomes (male Sprague Dawley rats) and pooled dog liver microsomes (male Beagle dog) are purchased from a reputable commercial supplier and stored at −80° C. prior to use.
(§3) The final incubation volume is 50 μL. A control incubation is included for each compound tested where 0.1 M phosphate buffer pH 7.4 is added instead of NADPH (minus NADPH). Two control compounds are included with each species. All incubations are performed singularly for each test compound.
(§4) The reactions are stopped by transferring 25 μL of incubate to 50 μL methanol at the appropriate time points. The termination plates are centrifuged at 2,500 rpm for 20 min at 4° C. to precipitate the protein. Following protein precipitation, the sample supernatants are combined in cassettes of up to 4 compounds, internal standard is added and samples analysed by LC-MS/MS. From a plot of ln peak area ratio (compound peak area/internal standard peak area) against time, the gradient of the line is determined. Subsequently, half-life and intrinsic clearance are calculated

RSV A2 (PRNT1) = experiment: RSV plaque reduction assay, A2 (PRNT1), Vero cells; type: cell-based, respiratory syncytial virus; details: n = 4
Protocol: Plaque Reduction Assay: […] After an overnight incubation at 37° C. in a humidified 5% CO2 atmosphere, the monolayer of cells should be approximately 90% confluent. Antiviral compounds were titrated in pre-warmed Serum Free (SF) Optimem in a U-bottom 96 well plate. […] Media was then removed from cells and replaced with PBS (100 μl/well). RSV stock was thawed and diluted in SF Optimem media to 4000 PFU/mLl. An equal volume of virus was added to compounds on the titration plate. PBS was removed from cells which were then inoculated with the virus/compound solution (50 μL/well). Cells were incubated for 2 h in a 37° C.+5% CO2 humidified incubator to allow infection. […] Immunostaining Procedure: Media was removed from cells and the monolayer washed with PBS. Cells were fixed with ice cold 80% Acetone in PBS (100 μl/well) for 20 mins at −20° C. […] Blocking solution was removed and plates washed once with PBS-T. Primary antibody in blocking solution was added to plates (50 μl/well) and incubated for 1 h at 37° C. Plates were then washed 3 times with PBS-T. Secondary antibody in blocking solution was added to plates (50 μL/well) and incubated for 1 h at 37° C. in the dark. […] Plates were scanned on the Odyssey Imager (Li-Cor Biosciences) at a resolution of […], medium quality and level 5 intensity in the […]. Data Analysis: Images obtained were saved and plaque numbers counted with the aid of computer imaging software. EC50 values for compounds were derived from dose response curves [three variable log (inhibitor) vs response] obtained using Graphpad Prism software.

[2] = Liver microsomal stability, dog; type: in vitro ADME; details: male, Beagle, pooled liver microsomes, pH 7.4, 3 μM compound, read-out: Liver Microsomal Stability T1/2, dog
Protocol: as §1, §2
as §3, with “Microsomes (final protein concentration 0.5 mg/mL), 0.1 M phosphate buffer pH 7.4 and test compound (final substrate concentration 3 μM; final DMSO concentration 0.25%) are pre-incubated at 37° C. prior to the addition of NADPH (final concentration 1 mM) to initiate the reaction. The” for “The”
as §4, with “Compounds are incubated for 0, 5, 15, 30 and 45 min. The control (minus NADPH) is incubated for 45 min only. The reactions” for “The reactions”

[3] = Liver microsomal stability, human; type: in vitro ADME; details: both sexes, pooled liver microsomes, pH 7.4, 3 μM compound, read-out: Liver Microsomal Stability T1/2, human
Protocol: as §1, §2
as §3, with “Microsomes (final protein concentration 0.5 mg/mL), 0.1 M phosphate buffer pH 7.4 and test compound (final substrate concentration 3 μM; final DMSO concentration 0.25%) are pre-incubated at 37° C. prior to the addition of NADPH (final concentration 1 mM) to initiate the reaction. The” for “The”
as §4, with “Compounds are incubated for 0, 5, 15, 30 and 45 min. The control (minus NADPH) is incubated for 45 min only. The reactions” for “The reactions”

[4] = In vivo pharmacokinetics in rats (IV and PO); design: species or system male Sprague Dawley rats; details: male Sprague Dawley rats, 1 mg/kg (IV)
Protocol: The pharmacokinetics of compounds were studied in vivo in male Sprague Dawley rats at doses of 1 mg/kg (IV) and 10 mg/kg (PO).
Sprague Dawley rats were treated with experimental compounds via intravenous and oral administration. Three animals for each route of administration were used with serial blood sampling at ten time points post dosing of compound.
Animals were weighed and used if between 200-250 g. Serial blood samples were collected at 0.02, 0.08, 0.25, 0.50, 1, 2, 4, 6, 8 and 24 hours post dosing. […] Blood samples were delivered into an anticoagulant (sodium heparin) and centrifuged at 4° C. Plasma samples were subsequently stored frozen at less than −20° C. prior to analysis.
Following protein precipitation with acetonitrile, samples were analysed with tandem liquid chromatography/mass spectrometry using electrospray ionisation. A full matrix curve with internal standards was employed and PK parameters were calculated.
In a similar manner, oral administration was performed by gavage at doses of 5 or 10 mg/kg at a concentration of 5 mg/ml in 1% Methyl cellulose (Sigma M7140), 0.1% Tween 80 in water. Serial samples were taken as described above.
RV039 was administered at doses of 1 mg/kg (IV) and 5 mg/kg (PO).

[5] = human respiratory syncytial virus, Vero

| half-life at 3 μM ([1]; pH 7.4, rat liver microsomes, 3 μM compound) [h] | IC50 (RSV A2 (PRNT1); [5]) [nM] | half-life at 3 μM [2] [h] | half-life at 3 μM [3] [h] | half-life at 3 μM ([1]; pooled liver microsomes, pH 7.4, 3 μM compound) [h] | Compound | IC50 (RSV A2 (PRNT1)) [nM] | Volume of distribution [4] |
| --- | --- | --- | --- | --- | --- | --- | --- |
| 4.1 | 1.6 | 55.8 | 0.557 |  | NCc1ccc2c(c1)nc(CN1C(=O)C3(CC3)c3ccc(F)cc31)n2C1CCOCC1 [Example 7, 1′-((5-(aminomethyl)-1-(tetrahydro-2H-pyran-4-yl)-1H-benzo[d]imidazol-2-yl)methyl)-6′-fluorospiro[cyclopropane-1,3′-indolin]-2′-one] |  |  |
|  |  |  |  |  | CC(C)CCn1c(CN2C(=O)C3(CC3)c3cccnc32)nc2cc(CN)ccc21 [Example 5, 1′-((5-(aminomethyl)-1-isopentyl-1H-benzo[d]imidazol-2-yl)methyl)[spirocyclopropane-1,3′-pyrrolo[2,3-b]pyridin]-2′(1′H)-one] | 5.3 | Example 5: 8.2 L/kg |
|  |  |  |  |  | NCc1ccc2c(c1)nc(CN1C(=O)C3(CC3)c3ccc(F)cc31)n2C1CCC(O)CC1 [Example 8, 1′-((5-(Aminomethyl)-1-((1R,4R)-4-hydroxycyclohexyl)-1H-benzo[d]imidazol-2-yl)methyl)-6′-fluorospiro[cyclopropane-1,3′-indolin]-2′-one] | 4.8 |  |
|  | 2.3 | 18.3 | 3.82 | 2.08 | CC(C)CCn1c(CN2C(=O)C3(CC3)c3ccncc32)nc2cc(CN)ccc21 [Example 6, 1′-((5-(aminomethyl)-1-isopentyl-1H-benzo[d]imidazol-2-yl)methyl)spiro[cyclopropane-1,3′-pyrrolo[2,3-c]pyridin]-2′(1′H)-one] |  |  |
